Legend:
TEC = target: T1, TEC (Homo sapiens, UniProt P42680); test: Inhibition of a panel of kinases, in vitro HotSpot kinase assay: TEC; format: biochemical; conditions: D-compounds panel data; 1 μM ATP
T1 sequence (P42680 1-631): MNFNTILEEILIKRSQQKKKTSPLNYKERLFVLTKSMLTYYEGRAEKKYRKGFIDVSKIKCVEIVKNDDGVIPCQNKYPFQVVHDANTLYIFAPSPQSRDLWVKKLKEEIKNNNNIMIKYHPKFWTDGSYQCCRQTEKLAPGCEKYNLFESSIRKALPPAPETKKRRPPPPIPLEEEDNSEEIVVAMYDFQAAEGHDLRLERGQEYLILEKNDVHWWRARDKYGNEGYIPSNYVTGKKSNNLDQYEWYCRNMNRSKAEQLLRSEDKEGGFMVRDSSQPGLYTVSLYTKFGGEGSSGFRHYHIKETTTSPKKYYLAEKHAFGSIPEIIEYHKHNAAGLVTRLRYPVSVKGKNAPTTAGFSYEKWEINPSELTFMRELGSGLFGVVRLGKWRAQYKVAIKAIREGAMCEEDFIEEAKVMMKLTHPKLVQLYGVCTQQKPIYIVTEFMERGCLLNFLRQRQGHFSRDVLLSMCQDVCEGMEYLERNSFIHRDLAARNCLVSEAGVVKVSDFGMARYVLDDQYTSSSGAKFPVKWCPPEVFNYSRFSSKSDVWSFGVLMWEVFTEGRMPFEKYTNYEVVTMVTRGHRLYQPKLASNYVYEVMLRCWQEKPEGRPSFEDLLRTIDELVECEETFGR
Procedure: The degree of inhibition of a panel of kinases is determined using the in vitro HotSpot kinase assay (purified enzymes, ^33P-ATP, an appropriate substrate and 1 μM ATP).

BTK-WT = target: T2, BTK-WT (Homo sapiens, UniProt Q06187); test: Btk in vitro inhibitory activity (one of Method A TR-FRET, Method B electrophoretic mobility shift, Method C radiometric filter binding); format: biochemical; conditions: D-compounds panel data; read-out: IC50 BTK-WT
T2 construct: purified from insect cells as a full-length construct containing an N-terminal 6X-His tag; His6 (N); made in house; host or cells: insect cells (baculovirus Sf21 in Method B)
T2 sequence (Q06187 whole entry): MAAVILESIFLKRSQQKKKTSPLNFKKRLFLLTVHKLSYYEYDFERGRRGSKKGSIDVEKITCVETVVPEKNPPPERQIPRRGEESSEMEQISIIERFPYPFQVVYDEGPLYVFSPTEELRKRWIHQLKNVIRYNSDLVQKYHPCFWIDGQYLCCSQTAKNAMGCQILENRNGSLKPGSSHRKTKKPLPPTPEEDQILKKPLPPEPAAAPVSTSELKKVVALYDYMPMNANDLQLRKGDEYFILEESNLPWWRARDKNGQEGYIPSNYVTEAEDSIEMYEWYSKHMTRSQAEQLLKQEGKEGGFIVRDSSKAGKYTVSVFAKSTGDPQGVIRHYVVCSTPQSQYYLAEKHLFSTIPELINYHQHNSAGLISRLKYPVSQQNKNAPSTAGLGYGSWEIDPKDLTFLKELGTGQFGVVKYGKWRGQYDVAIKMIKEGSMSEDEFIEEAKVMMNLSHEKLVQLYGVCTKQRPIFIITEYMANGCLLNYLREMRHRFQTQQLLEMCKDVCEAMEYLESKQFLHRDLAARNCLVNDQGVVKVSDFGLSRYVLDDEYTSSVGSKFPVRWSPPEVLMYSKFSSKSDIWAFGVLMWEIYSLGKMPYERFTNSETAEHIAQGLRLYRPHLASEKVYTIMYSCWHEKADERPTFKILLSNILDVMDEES

| IC50 (TEC) | IC50 (BTK-WT) | SMILES |
| --- | --- | --- |
| 10 to 100 nM | ≤ 10 nM | C[C@@H]1[C@H](NC(=O)c2ccc(C3CC3)cc2F)CCCN1c1cnc(C(N)=O)c(Nc2ccc(N3CCN(C4CCCC4)CC3)cc2)n1 [Example D-5, 3-{[4-(4-cyclopentylpiperazin-1-yl)phenyl]amino}-5-[(2R,3R)-3-(4-cyclopropyl-2-fluorobenzamido)-2-methylpiperidin-1-yl]pyrazine-2-carboxamide] |
| 10 to 100 nM | ≤ 10 nM | C[C@@H]1[C@H](n2ccc3cc(C4CC4)ccc3c2=O)CCCN1c1cnc(C(N)=O)c(Nc2ccc(N3CCN(C)CC3)cc2)n1 [Example D-6, 5-[(2R,3R)-3-(6-cyclopropyl-1-oxo-1,2-dihydroisoquinolin-2-yl)-2-methylpiperidin-1-yl]-3-{[4-(4-methylpiperazin-1-yl)phenyl]amino}pyrazine-2-carboxamide] |
| 10 to 100 nM | ≤ 10 nM | CC(C)N1CCN(c2ccc(Nc3nc(N4CCC[C@@H](NC(=O)c5ccc(C6CC6)cc5F)[C@H]4C)cnc3C(N)=O)cc2)CC1 [Example D-7, 5-[(2R,3R)-3-(4-cyclopropyl-2-fluorobenzamido)-2-methylpiperidin-1-yl]-3-({4-[4-(propan-2-yl)piperazin-1-yl]phenyl}amino)pyrazine-2-carboxamide] |
| 1000 to 10000 nM | 10 to 100 nM | C[C@@H]1[C@H](NC(=O)c2ccc(C3CC3)cc2F)CCCN1c1cnc(C(N)=O)c(Nc2ccc(N3CCN(C)CC3)cn2)n1 [Example D-8, 5-[(2R,3R)-3-(4-cyclopropyl-2-fluorobenzamido)-2-methylpiperidin-1-yl]-3-{[5-(4-methylpiperazin-1-yl)pyridin-2-yl]amino}pyrazine-2-carboxamide] |
| 10 to 100 nM | ≤ 10 nM | C[C@@H]1[C@H](NC(=O)c2ccc(C3CC3)cc2F)CCCN1c1cnc(C(N)=O)c(Nc2ccc(N3CCN(C)CC3=O)cc2)n1 [Example D-10, 5-[(2R,3R)-3-(4-cyclopropyl-2-fluorobenzamido)-2-methylpiperidin-1-yl]-3-{[4-(4-methyl-2-oxopiperazin-1-yl)phenyl]amino}pyrazine-2-carboxamide] |
| 10 to 100 nM | ≤ 10 nM | C[C@@H]1[C@H](NC(=O)c2ccc(C(F)(F)F)cc2)CCCN1c1cnc(C(N)=O)c(Nc2ccc(N3CCN(C)CC3)cc2)n1 [Example D-11, 5-[(2R,3R)-2-methyl-3-[4-(trifluoromethyl)benzamido]piperidin-1-yl]-3-{[4-(4-methylpiperazin-1-yl)phenyl]amino}pyrazine-2-carboxamide] |
| 10 to 100 nM | ≤ 10 nM | C[C@@H]1[C@H](NC(=O)c2ccc(OC(F)(F)F)cc2)CCCN1c1cnc(C(N)=O)c(Nc2cnn(C)c2)n1 [Example D-95, 3-[(1-methyl-1H-pyrazol-4-yl)amino]-5-[(2R,3R)-2-methyl-3-[4-(trifluoromethoxy)benzamido]piperidin-1-yl]pyrazine-2-carboxamide] |
| 10 to 100 nM | 10 to 100 nM | C[C@@H]1[C@H](NC(=O)c2ccc(C3CC3)cc2)CCCN1c1cnc(C(N)=O)c(Nc2ccc(N3CCC(F)(F)CC3)cc2)n1 [Example D-96, 5-[(2R,3R)-3-(4-cyclopropylbenzamido)-2-methylpiperidin-1-yl]-3-{[4-(4,4-difluoropiperidin-1-yl)phenyl]amino}pyrazine-2-carboxamide] |
| 10 to 100 nM | 10 to 100 nM | C[C@@H]1[C@H](NC(=O)c2ccc(C3CC3)cc2)CCCN1c1cnc(C(N)=O)c(Nc2ccc(N3CCN(CC(F)(F)F)CC3)cc2)n1 [Example D-97, 5-[(2R,3R)-3-(4-cyclopropylbenzamido)-2-methylpiperidin-1-yl]-3-({4-[4-(2,2,2-trifluoroethyl)piperazin-1-yl]phenyl}amino)pyrazine-2-carboxamide] |
| 100 to 1000 nM | ≤ 10 nM | C[C@@H]1[C@H](NC(=O)c2ccc(C3CC3)cc2)CCCN1c1cnc(C(N)=O)c(Nc2ccc(OC3CCN(CC(F)(F)F)CC3)cc2)n1 [Example D-98, 5-[(2R,3R)-3-(4-cyclopropylbenzamido)-2-methylpiperidin-1-yl]-3-[(4-{[1-(2,2,2-trifluoroethyl)piperidin-4-yl]oxy}phenyl)amino]pyrazine-2-carboxamide] |
| ≤ 10 nM | ≤ 10 nM | C[C@@H]1[C@H](NC(=O)c2ccc(C3CC3)cc2)CCCN1c1cnc(C(N)=O)c(Nc2ccc(N3CCC4(CC3)COC4)cc2)n1 [Example D-99, 5-[(2R,3R)-3-(4-cyclopropylbenzamido)-2-methylpiperidin-1-yl]-3-[(4-{2-oxa-7-azaspiro[3.5]nonan-7-yl}phenyl)amino]pyrazine-2-carboxamide] |
| ≤ 10 nM | ≤ 10 nM | C[C@@H]1[C@H](NC(=O)c2ccc(C3CC3)cc2)CCCN1c1cnc(C(N)=O)c(Nc2ccc(N3CCC(C(C)(C)O)CC3)cc2)n1 [Example D-100, 5-[(2R,3R)-3-(4-cyclopropylbenzamido)-2-methylpiperidin-1-yl]-3-({4-[4-(2-hydroxypropan-2-yl)piperidin-1-yl]phenyl}amino)pyrazine-2-carboxamide] |
| ≤ 10 nM | ≤ 10 nM | C[C@@H]1[C@H](NC(=O)c2ccc(C3CC3)cc2)CCCN1c1cnc(C(N)=O)c(Nc2ccc(OC3CCN(C4CCCC4)CC3)cc2)n1 [Example D-101, 3-({4-[(1-cyclopentylpiperidin-4-yl)oxy]phenyl}amino)-5-[(2R,3R)-3-(4-cyclopropylbenzamido)-2-methylpiperidin-1-yl]pyrazine-2-carboxamide] |
| 10 to 100 nM | ≤ 10 nM | C[C@@H]1[C@H](NC(=O)N(C)C)CCCN1c1cnc(C(N)=O)c(Nc2ccc(OC3CCN(C4CCCC4)CC3)cc2)n1 [Example D-102, 3-({4-[(1-cyclopentylpiperidin-4-yl)oxy]phenyl}amino)-5-[(2R,3R)-3-[(dimethylcarbamoyl)amino]-2-methylpiperidin-1-yl]pyrazine-2-carboxamide] |
| 100 to 1000 nM | ≤ 10 nM | C[C@@H]1[C@H](NC(=O)c2ccc(C3CC3)cc2)CCCN1c1cnc(C(N)=O)c(Nc2ccc(N3CCN(C)CC3)cc2F)n1 [Example D-103, 5-[(2R,3R)-3-(4-cyclopropylbenzamido)-2-methylpiperidin-1-yl]-3-{[2-fluoro-4-(4-methylpiperazin-1-yl)phenyl]amino}pyrazine-2-carboxamide] |
| ≤ 10 nM | ≤ 10 nM | C[C@@H]1[C@H](NC(=O)c2ccc(C3CC3)cc2)CCCN1c1cnc(C(N)=O)c(Nc2ccc(OC3CCCN(C)C3)cc2)n1 (stereo partly drawn) [Example D-105, 5-[(2R,3R)-3-(4-cyclopropylbenzamido)-2-methylpiperidin-1-yl]-3-({4-[(1-methylpiperidin-3-yl)oxy]phenyl}amino)pyrazine-2-carboxamide] |
| ≤ 10 nM | ≤ 10 nM | CC(=O)NC(C)(C)c1ccc(C(=O)N[C@@H]2CCCN(c3cnc(C(N)=O)c(Nc4cnn(C)c4)n3)[C@@H]2C)cc1 [Example D-107, 5-[(2R,3R)-3-[4-(2-acetamidopropan-2-yl)benzamido]-2-methylpiperidin-1-yl]-3-[(1-methyl-1H-pyrazol-4-yl)amino]pyrazine-2-carboxamide] |
| 10 to 100 nM | ≤ 10 nM | C[C@@H]1[C@H](NC(=O)c2ccc(C(C)(C)N(C)C)cc2)CCCN1c1cnc(C(N)=O)c(Nc2cnn(C)c2)n1 [Example D-108, 5-[(2R,3R)-3-{4-[2-(dimethylamino)propan-2-yl]benzamido}-2-methylpiperidin-1-yl]-3-[(1-methyl-1H-pyrazol-4-yl)amino]pyrazine-2-carboxamide] |

| SMILES | IC50 (TEC) | IC50 (BTK-WT) |
| --- | --- | --- |
| C[C@@H]1[C@H](NC(=O)Nc2cccnc2)CCCN1c1cnc(C(N)=O)c(Nc2ccc(C3(C)CCN(C4CCCC4)CC3)cc2)n1 [Example D-9, 3-{[4-(1-cyclopentyl-4-methylpiperidin-4-yl)phenyl]amino}-5-[(2R,3R)-2-methyl-3-{[(pyridin-3-yl)carbamoyl]amino}piperidin-1-yl]pyrazine-2-carboxamide] | 10 to 100 nM | ≤ 10 nM |
| C[C@@H]1[C@H](NC(=O)c2ccc(C3CC3)cc2)CCCN1c1cnc(C(N)=O)c(Nc2ccc(OC3C[C@H]4CC[C@@H](C3)N4C)cc2)n1 (stereo partly drawn) [Example D-104, 5-[(2R,3R)-3-(4-cyclopropylbenzamido)-2-methylpiperidin-1-yl]-3-[(4-{[(1R,5S)-8-methyl-8-azabicyclo[3.2.1]octan-3-yl]oxy}phenyl)amino]pyrazine-2-carboxamide] | ≤ 10 nM | ≤ 10 nM |
| C[C@@H]1[C@H](NC(=O)c2ccc(C3CC3)cc2)CCCN1c1cnc(C(N)=O)c(Nc2ccc(OC3C[C@H]4CC[C@@H](C3)N4C)cc2)n1 (stereo partly drawn) [Example D-106, 5-[(2R,3R)-3-(4-cyclopropylbenzamido)-2-methylpiperidin-1-yl]-3-[(4-{[(1R,5S)-8-methyl-8-azabicyclo[3.2.1]octan-3-yl]oxy}phenyl)amino]pyrazine-2-carboxamide] | ≤ 10 nM | ≤ 10 nM |
